# Assay results from patent US20240018105A1, “TROPOLONE DERIVATIVES AND TAUTOMERS THEREOF FOR IRON REGULATION IN ANIMALS” (Kinesid Therapeutics, Inc., priority 2019, published 2024).
# Experiments:
# [1] = Ligand facilitated Fe(III) efflux from liposomes; details: 10 uM ligand concentration
# Method: Assay 1: Ligand Facilitated Fe(III) Efflux from Liposomes Preparation of POPC (1-palmitoyl-2-oleoyl-sn-glycero-3-phosphocholine): Cholesterol Liposomes:
# A 1M buffer solution of MES and Tris was prepared by dissolving 121.14 grams of Tris base and 213.25 grams of MES hydrate in 500 mL of MilliQ water and adjusted to pH7.0 using an […] HCl solution before bringing the total volume of the solution to 1 L. A 500 mM solution of FeCl3 was prepared by dissolving 0.811 grams of anhydrous FeCl3 in 10 mL of a 0.1M H2SO4 aqueous solution. Inside buffer is prepared in a 50 mL falcon tube, which was added with 25 mL of MilliQ water, 1.61 g of sodium citrate, 1.5 mL of the above FeCl3 solution, and 2.5 mL of the 1M MES/Tris HCl buffer (pH=7.0), and finally additional MilliQ H2O to bring to a 50 mL final volume.
# Lipid solution is prepared by dissolving 206.9 mg of POPC (1-palmitoyl-2-oleoyl-sn-glycero-3-phosphocholine) and 8.6 mg of cholesterol in 10 mL of ethanol.
# The lipids solution and the inside buffer solution are independently loaded into 10 mL luer lock syringes for loading into a virgin cartridge on a Precision Nanosystems NanoAssembler to prepare unilamaller liposomes with the following parameters: 7.5 mL total volume, 1.5:1 mixing ratio of inside buffer:lipids solution, 8 mL/min flow rate, ambient temperature, 0.35 mL start waste, and 0.05 mL of end waste. 7.5 mL of liposomes is harvested for purification on a 6-inch long, 1-inch diameter Sephadex G-50 column wetted in 600 mM sodium ascorbate and 50 mM MES/Tris HCl pH 7.0 buffer. This buffer also serves as the column running buffer. The crude liposome solution is carefully loaded with minimal volume of running buffer above the top of the Sphadex, allowed to enter the matrix, and the column is run with the continued addition of running buffer. The eluting liposomes, observed as a milky and turbid solution, are collected until free iron begins to elute (observed as a deep purple color) and the fractions are pooled for phosphorus quantitation.
# Phosphorus content of eluted liposomes was determined by the process outlined below. 10 uL of liposome elution and a running buffer blank are added to a 5 mL glass vial containing 450 uL of a 8.9 M aqueous H2SO4 solution, the mixture is heated to 225° C. for 25 minutes in an aluminum heat block to hydrolyze POPC and cooled for 5 minutes. 200 ul of a 30% hydrogen peroxide aqueous solution is added to each vial and heated to 225° C. for 25 minutes. After cooling, the phosphorus content was determined using an Abcam Phosphate Assay kit, with buffer subtracted phosphorus levels determined against a standard curve of phosphate included in the kit. Liposomes were diluted to 1 mM phosphate in Running Buffer for use in assays after accounting for dilutions made during phospholipid digestion.
# Determination of the rate at which a small molecule ligand liberates (transport) Ferric iron from liposomes is performed in clear bottom black 384-well plates on a Spectramax i3x set to read the absorbance at 562 nm in the kinetic mode every 60 seconds for 120 minutes. 1 uL of serially diluted DMSO stock solution of a small molecule ligand is added to wells in triplicate to give the final concentrations of 40, 20, 10, 5, 2.5, and 1.25 uM of the ligand at 80 μL final volume, followed by addition of 1 μL of 100 mM Ferrozine in water to give a final concentration of 1 mM ferrozine. 78 uL of liposomes diluted to 1 mM phosphorus in running buffer is added to wells as quickly as possible (using a digital repeater mulchannel pipette) with the kinetic read initiated as rapidly as possible after addition of liposomes to all wells. Typically, eight compounds at six concentrations are tested in triplicate simultaneously.
# Upon completion of kinetic read, the data for individual reads is fitted to a single phase association regression with the equation Y=(Y0−YMax)^(−kX)+YMax, with Y being the 562 absorbance value and X being time in minutes. […]
# [2] = test system: DMT1-deficient Caco-2 cells; test: shDMT1-Caco2 55Fe transport assay; type: cell-based; details: Caco-2
# Description: Assay 2: shDMT1-Caco2 ^55Fe Transport Assay to Assess Ligand Ability in Transporting Fe (III)
# Cells: DMT1-deficient Caco-2 cells (alias: “shDMT1,” or “4A” cells) were from Grillo et al. Science, 2017, and were cryopreserved in liquid nitrogen prior to use.
# Reagents and supplies: ^55FeCl3 was obtained from PerkinElmer (Boston, MA). Iron(III) chloride (FeCl3) hexahydrate was obtained from Sigma. Dulbecco's Modified Eagle Medium (DMEM), fetal bovine serum (FBS), L-glutamine, MEM nonessential amino acids, penicillin-streptomycin, G418, formic acid, methanol, high-purity water, ammonium formate, dimethyl sulfoxide (DMSO) were purchased from Fisher Scientific. Propranolol, atenolol and carbutamide were obtained from Sigma-Aldrich Chemical Company (St Louis, MO). Scintillation cocktail was obtained from Research Product International Co. (Mount Prospect, IL). Stericup filter system (PES membrane, 0.22 um pore size) was purchased from Fisher Scientific. Coming item #3378 24-well transwell insert plates. Test articles: known compounds hinokitiol and deferiprone were purchased from Sigma. They are tested side by side with the small molecule ligands disclosed in this application. DMSO stocks (10 mM, which is 1,000× of the 10 μM dose level) of hinokitiol or test articles were prepared. A stock solution of 25 mM deferiprone in DMSO was prepared. The DMSO stock solutions were stored at −20° C. or below when not in use.
# The growth medium was prepared according to the following table
# Apical media (serum free DMEM, 10 mM MES, pH 6.5) was prepared. Apical master mix media was prepared fresh with the addition of 200 nM ^55Fe before each experiment. For the negative control propranolol and atenolol wells, 200 nM of non-radioactive iron was used.
# The basolateral media was serum-free DMEM, 10 mM HEPES, 2% bovine serum albumin (BSA), pH 7.4.
# For each experiment, cells were seeded into the 24-well transwell plates (0.5 mL of 50,000 cells/mL) with growth media. The basolateral companion plate was loaded with 1 mL of growth media. After 12-24 hr, both the apical and basolateral chamber were replaced with growth media. The apical media was changed 3× per week for 21-28 days, including a media change exactly 48 hr before the assay date.
# On the assay day, the TEER values were measured and the average TEER values was obtained. Individual wells with TEER vaule >35% lower than the average of all wells were excluded. For the qualified wells, the apical layer (twice) and basolaterial (once) chambers were washed with PBS. The basolateral companion plate was then filled with 1 mL of basolateral media. Via addition down the side-wall of the apical well, 300 μL per well of the apical assay master mix, with the indicated dose level of test article, was added. Each dose was tested in triplicate. The plates were incubated (5% CO2 and 90% humidity at 37° C.) for the indicated timepoints. At each indicated timepoint, the basolateral supernatant was gently mixed via pipetting, and 200 μL of the basolateral supernatant was transferred to scintillation vials. To each scintillation counting vial, 5 mL of scintillation cocktail fluid was added. For each scintillation vial, the radioactivity (CPM) was determined with liquid scintillation counter LS6500. The counting time per vial was 5 min.
# All raw CPM values are divided by the average value of blank DMSO solution to give a fold of change above the DMSO value. The mean and standard deviation of each compound at each concentration level and at each time point measured was calculated to give the fold change (fc) value.
# For rank order compounds, the fc value of a ligand at 4 h time point is further divided by the fold change (fc) value of hinokitiol (a positive control compound) at an equimolar concentration to arrive at the FC (normalized fold of change) value. Data reported in Tables 1 and 2 is 4 hr time point FC=fc-ligand @ 3 uM/fc-hino @ 3 uM, and FC hino=1.
# Mouse 6-hour PK study = details: in vivo
# Description: Compounds of the present disclosure were further evaluated in standard in vitro and in vivo Absorption, Distribution, Metabolism, Excretion (ADME) and Drug Metabolism and Pharmacokinetics (DMPK) assays to assess drug profiles important for further drug development.
# Such assessments included human and mouse liver microsomal stability assays as well as 6-hour mouse PK studies.
"Caco2 shDMT1 transport FC @ 3 μM, 4h [2]",SMILES,Liposome Fe transport kefflux at 10 10 μM ([1]; Table 1),also measured
0.01-0.5,"Cc1ncc(F)cc1-c1cccc(=O)c(O)c1 [Ex.58, 4-(5-fluoro-2-methylpyridin-3-yl)-2-hydroxycyclohepta-2,4,6-trien-1-one]",0.1-5,–
0.01-0.5,"Cc1ncc(-c2ccc(O)c(=O)cc2)cc1F [Ex.59, 5-(5-fluoro-6-methylpyridin-3-yl)-2-hydroxycyclohepta-2,4,6-trien-1-one]",5-7.5,–
0.01-0.5,"CC(C)c1ccc(O)c(=O)c(-c2cncc(F)c2)c1 [Ex.61, 2-(5-fluoropyridin-3-yl)-7-hydroxy-4-isopropylcyclohepta-2,4,6-trien-1-one]",7.5-10,–
0.01-0.5,"O=c1ccccc(-c2cccc(F)n2)c1O [Ex.69, 3-(6-fluoropyridin-2-yl)-2-hydroxycyclohepta-2,4,6-trien-1-one]",–,Liposome Fe transport Kefflux at 10 μM ([1]; Table 2): 10-25
0.01-0.5,"O=c1ccccc(-c2cc(F)ccn2)c1O [Ex.70, 3-(4-fluoropyridin-2-yl)-2-hydroxycyclohepta-2,4,6-trien-1-one]",–,Liposome Fe transport Kefflux at 10 μM ([1]; Table 2): 10-25
0.5-1,"O=c1ccccc(-c2cncs2)c1O [Ex.75, 2-hydroxy-3-(thiazol-5-yl)cyclohepta-2,4,6-trien-1-one]",–,Liposome Fe transport Kefflux at 10 μM ([1]; Table 2): 0.1-5
0.5-1,"O=c1ccccc(-c2cscn2)c1O [Ex.76, 2-hydroxy-3-(thiazol-4-yl)cyclohepta-2,4,6-trien-1-one]",–,AUC(0-t) (Mouse 6-hour PK study): 500 to 1500 ng·h/mL; Cmax (Mouse 6-hour PK study): 1500 to 5000 ng/mL; half-life (Mouse 6-hour PK study): < 1.25 h; mouse 6-hour PK properties compared to hinokitiol (Mouse 6-hour PK study): one or more improved mouse 6-hour PK properties compared to hinokitiol
0.02-0.03,"Cc1c(O)c(=O)ccn1C [deferiprone, reference compound]",–,Liposome Fe transport Kefflux at 10 μM ([1]; Table 1): 0

# The next lines start with the compound.
SMILES,"Caco2 shDMT1 transport FC @ 3 μM, 4h [2]",Liposome Fe transport kefflux at 10 10 μM ([1]; Table 1),also measured
"O=c1cccc(-c2cnc(N3CCOCC3)nc2)cc1O [Ex.42, 2-hydroxy-4-(2-morpholinopyrimidin-5-yl)cyclohepta-2,4,6-trien-1-one]",0.01-0.5,7.5-10,–
"Cc1c(F)cncc1-c1cccc(=O)c(O)c1 [Ex.46, 4-(5-fluoro-4-methylpyridin-3-yl)-2-hydroxycyclohepta-2,4,6-trien-1-one]",0.01-0.5,5-7.5,–
"O=c1c(O)ccccc1-c1ccncn1 [Ex.47, 2-hydroxy-7-(pyrimidin-4-yl)cyclohepta-2,4,6-trien-1-one]",0.01-0.5,0.1-5,–
"O=C(O)C(F)(F)F.O=c1cccc(-c2ccncn2)cc1O [Ex.48, 2-hydroxy-4-(pyrimidin-4-yl)cyclohepta-2,4,6-trien-1-one]",0.01-0.5,0.1-5,–
"O=c1ccc(-c2ccncn2)ccc1O [Ex.49, 2-hydroxy-5-(pyrimidin-4-yl)cyclohepta-2,4,6-trien-1-one]",0.01-0.5,0.1-5,–
"O=c1cccc(-c2ccncc2F)cc1O [Ex.50, 4-(3-fluoropyridin-4-yl)-2-hydroxycyclohepta-2,4,6-trien-1-one]",0.01-0.5,0.1-5,–
"O=c1ccc(-c2cnccc2F)ccc1O [Ex.51, 5-(4-fluoropyridin-3-yl)-2-hydroxycyclohepta-2,4,6-trien-1-one]",0.01-0.5,5-7.5,–
"O=c1cccc(-c2cnccc2F)cc1O [Ex.52, 4-(4-fluoropyridin-3-yl)-2-hydroxycyclohepta-2,4,6-trien-1-one]",0.01-0.5,0.1-5,–
"Cc1ncccc1-c1cccc(=O)c(O)c1 [Ex.53, 2-hydroxy-4-(2-methylpyridin-3-yl)cyclohepta-2,4,6-trien-1-one]",0.01-0.5,0.1-5,–
"COc1ncccc1-c1cccc(=O)c(O)c1 [Ex.54, 2-hydroxy-4-(2-methoxypyridin-3-yl)cyclohepta-2,4,6-trien-1-one]",0.01-0.5,10-25,–
"Cc1cc(-c2cccc(=O)c(O)c2)cnc1N [Ex.56, 4-(6-amino-5-methylpyridin-3-yl)-2-hydroxycyclohepta-2,4,6-trien-1-one]",0.01-0.5,0.1-5,–
